Measurements published in the NIST ThermoML archive (doi:10.1021/je0502849).

Settings: Liquid, Pulse-echo method

CC(C)CC(C)(C)C [2,2,4-trimethylpentane]
speed of sound [m/s]
Settings	293.15 K	303.15 K	313.15 K	323.15 K	333.15 K	343.15 K	353.15 K	363.15 K	373.15 K
100 kPa	1104.6	1061.7	1019.1	977.9	935.8	897.3	858.2	817.2	780.4
10000 kPa	1178.5	1139.3	1100.9	1063.5	1026.6	992.6	958	924.3	891
20000 kPa	1244.6	1208.6	1173	1138.8	1105.2	1071.6	1041.7	1011.1	980.7
30000 kPa	1304.8	1270.2	1237	1204.7	1173	1142.7	1114.1	1085.5	1057.5
40000 kPa	1358.5	1326.8	1295.2	1264.6	1234.2	1205.7	1178.7	1151.4	1125.2
50000 kPa	1410.3	1378.5	1349.3	1319	1290.2	1262.9	1236.1	1211.3	1185.9
60000 kPa	1458.1	1427	1397.6	1369.8	1341.8	1315.4	1290.4	1265.7	1242.1
70000 kPa	1502.5	1472.6	1443.4	1416.6	1390	1363.5	1339.5	1316.6	1293.1
80000 kPa	1544.7	1515.6	1487.6	1461.2	1434.9	1410.8	1386.8	1364.4	1341.5
90000 kPa	1584.5	1556.4	1529	1503.4	1479	1453.6	1431	1408.2	1386
100000 kPa	1622.6	1594.5	1568.7	1543.4	1519	1495.3	1472.5	1449.9	1428.5
110000 kPa	1658.9	1632.1	1605.9	1581.4	1557.7	1534	1512.1	1490.6	1469.2
120000 kPa	1694	1667.5	1641.7	1617.8	1594.1	1571.7	1549.6	1529	1508.2
130000 kPa	1727.5	1701.6	1676.3	1653.1	1629.5	1607.2	1585.9	1565.5	1545.1
140000 kPa	1760.1	1734.3	1709.4	1686.4	1663.5	1641.7	1620.5	1600.8	1580.3
150000 kPa	1791.1	1766.4	1741.7	1718.6	1696.2	1675	1654.1	1634.2	1614

CCC(C)C(C)C (configuration not stated) [2,3-dimethylpentane]
speed of sound [m/s]
Settings	293.15 K	303.15 K	313.15 K	323.15 K	333.15 K	343.15 K	353.15 K	363.15 K	373.15 K
100 kPa	1149.5	1103.2	1061.2	1017.4	973.7	931	889.5	849.4	808.9
10000 kPa	1220.2	1178.6	1138	1099.7	1061.7	1022.5	986.1	950.4	914.8
20000 kPa	1284.8	1245.9	1207.8	1171.8	1136.5	1101.8	1067.4	1035.4	1003.1
30000 kPa	1342.3	1306.5	1270.7	1236.2	1203.1	1170.5	1138.8	1108.4	1079
40000 kPa	1396.2	1361.5	1327.2	1294.8	1263.1	1232	1201.8	1173.6	1145.4
50000 kPa	1445.3	1411.9	1379.5	1348.2	1317.7	1287.5	1259.9	1232.3	1205.1
60000 kPa	1491.9	1458.5	1428.2	1397.8	1368.8	1339.8	1312.3	1286.2	1260.3
70000 kPa	1535.2	1503.4	1473.4	1444.3	1416	1388.3	1361.7	1336.7	1311.6
80000 kPa	1576.5	1545.5	1516.6	1488.2	1460.6	1433.1	1407.9	1383.4	1358.8
90000 kPa	1616.1	1585.9	1557.2	1529.5	1502.6	1476.4	1451	1427.8	1403.8
100000 kPa	1653	1623.9	1595.8	1569.1	1542.8	1516.8	1492.5	1469.5	1446.4
110000 kPa	1688.6	1660	1632.9	1606.4	1580.5	1555.6	1531.5	1508.7	1486.3
120000 kPa	1723.2	1694.7	1668.4	1642.2	1617.1	1592.3	1569.2	1546.8	1524.6
130000 kPa	1756.3	1728.8	1702.5	1676.9	1652.2	1627.9	1604.7	1583	1561.1
140000 kPa	1788	1760.4	1735.5	1713.3	1685.7	1661.8	1639.3	1617.8	1596.4
150000 kPa	1818.6	1792.3	1766.7	1742.2	1718.3	1694.8	1672.8	1650.9	1630.2

CCCC(C)C [2-methylpentane]
speed of sound [m/s]
Settings	293.15 K	303.15 K	313.15 K	323.15 K	333.15 K	343.15 K	353.15 K	363.15 K	373.15 K
100 kPa	1064.6	1016.5	971.8	927.3	–	–	–	–	–
10000 kPa	1145.5	1102.8	1061.7	1022	982.1	943.2	905	867.4	830.7
20000 kPa	1215.4	1176	1138.5	1101.2	1065.4	1030.2	996.4	962.8	931.1
30000 kPa	1277.6	1240.8	1205.5	1170.8	1137.2	1104.8	1073.6	1042.9	1013
40000 kPa	1334.9	1299.5	1265.9	1233.9	1201.3	1170.9	1141	1112.8	1084.6
50000 kPa	1386.9	1352.6	1321.2	1289.9	1260.2	1230.4	1201.8	1174.7	1148.2
60000 kPa	1434.8	1403	1372.2	1342.1	1313.1	1284.6	1257.8	1231.7	1206.3
70000 kPa	1480.4	1449.6	1419.4	1391.6	1363.4	1335.3	1309.7	1284.1	1259.6
80000 kPa	1523.4	1492.9	1464	1436	1408.6	1381.8	1356.7	1332.7	1309
90000 kPa	1564	1534.6	1506.3	1478.4	1452.5	1426.6	1402.3	1378.4	1354.6
100000 kPa	1602.3	1573.5	1546.3	1519.2	1493.6	1468.3	1444.8	1421.9	1399
110000 kPa	1638.5	1610.7	1584.2	1558.7	1532.6	1508.4	1485.1	1462.6	1440.8
120000 kPa	1674.4	1646.9	1620.7	1595.2	1570	1546.2	1523.3	1501.1	1479.6
130000 kPa	1708.1	1681.6	1655.7	1630.8	1605.9	1582.5	1560	1538.3	1517.1
140000 kPa	1740.8	1714.3	1689.6	1664.2	1640.4	1617.2	1595.2	1573.9	1553
150000 kPa	1771.8	1746.6	1721.4	1696.8	1673	1650.2	1628.8	1607.8	1587.5
